IC50 data for 17 compounds are collected here from patent publication US9708316B2 (BRISTOL-MYERS SQUIBB COMPANY, priority 2014, dated 2017).

One test concerns the target HIS-TGFβR2 WT (Homo sapiens, UniProt P37173). Put plainly: HTRF probe-displacement assay, HIS-TGFβR2 WT. It counts as binding.
For the next test, the target named is T1, HIS-TGFβR1 T204D (Homo sapiens, UniProt P36897, T204D).
T1 sequence (P36897 34-503 T204D): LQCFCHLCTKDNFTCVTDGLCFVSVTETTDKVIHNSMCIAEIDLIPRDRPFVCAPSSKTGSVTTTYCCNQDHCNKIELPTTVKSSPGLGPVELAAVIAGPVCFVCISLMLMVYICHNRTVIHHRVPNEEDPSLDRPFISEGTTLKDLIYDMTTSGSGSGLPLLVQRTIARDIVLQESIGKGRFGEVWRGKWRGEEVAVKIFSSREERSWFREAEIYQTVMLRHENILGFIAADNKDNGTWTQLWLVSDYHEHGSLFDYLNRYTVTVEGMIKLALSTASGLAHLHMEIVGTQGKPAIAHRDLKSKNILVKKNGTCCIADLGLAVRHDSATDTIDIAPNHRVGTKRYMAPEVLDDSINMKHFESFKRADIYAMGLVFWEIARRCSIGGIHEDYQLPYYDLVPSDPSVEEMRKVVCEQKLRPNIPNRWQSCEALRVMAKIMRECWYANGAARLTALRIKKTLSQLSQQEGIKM
Put plainly: HTRF probe-displacement assay, HIS-TGFβR1 T204D. The format is binding. Particulars: read-out: TGFβR1 (μM) IC50.

Sequence of HIS-TGFβR2 WT (P37173 23-567): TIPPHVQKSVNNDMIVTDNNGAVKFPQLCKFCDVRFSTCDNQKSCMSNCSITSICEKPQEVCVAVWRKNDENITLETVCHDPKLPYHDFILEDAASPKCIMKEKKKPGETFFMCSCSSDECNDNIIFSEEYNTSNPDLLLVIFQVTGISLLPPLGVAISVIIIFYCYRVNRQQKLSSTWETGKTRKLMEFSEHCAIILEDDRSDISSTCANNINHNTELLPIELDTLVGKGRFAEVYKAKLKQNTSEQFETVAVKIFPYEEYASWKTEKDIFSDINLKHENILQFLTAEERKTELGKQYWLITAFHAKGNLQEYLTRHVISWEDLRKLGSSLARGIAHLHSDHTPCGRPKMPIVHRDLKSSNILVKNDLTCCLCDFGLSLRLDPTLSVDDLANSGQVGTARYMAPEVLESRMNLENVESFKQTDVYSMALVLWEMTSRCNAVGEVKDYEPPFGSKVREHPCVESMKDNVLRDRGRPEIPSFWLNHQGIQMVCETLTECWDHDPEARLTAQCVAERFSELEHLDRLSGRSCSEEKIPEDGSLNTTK

Take `CC(=O)Nc1cc(-c2[nH]c3cc(Cl)cnc3c2-c2nc(CO)cs2)ccn1` [Example 178, N-(4-(6-Chloro-3-(4-(hydroxymethyl)thiazol-2-yl)-1H-pyrrolo[3,2-b]pyridin-2-yl)pyridin-2-yl)acetamide]: the IC50 at HIS-TGFβR2 WT turned out to be 0.176 µM; on HIS-TGFβR1 T204D, 0.0035 µM.

With `COc1ccc(-c2c(-c3ccnc(NC(C)=O)c3)[nH]c3c(C(C)(C)O)ccnc23)cn1` [Example 299, N-(4-(7-(2-Hydroxypropan-2-yl)-3-(6-methoxypyridin-3-yl)-1H-pyrrolo[3,2-b]pyridin-2-yl)pyridin-2-yl)acetamide], the IC50 was 0.038 µM at HIS-TGFβR2 WT and 0.002 µM on HIS-TGFβR1 T204D.

As to `COc1ccc(-c2c(-c3ccnc(NC(C)=O)c3)[nH]c3cccnc23)nn1` [Example 198, N-(4-(3-(6-Methoxypyridazin-3-yl)-1H-pyrrolo[3,2-b]pyridin-2-yl)pyridin-2-yl)acetamide], the values for the IC50 at HIS-TGFβR2 WT and on HIS-TGFβR1 T204D were 1.48 µM and 0.0011 µM, respectively.

With `CC(=O)Nc1cc(-c2[nH]c3c(CO)ccnc3c2-c2ccc(F)nc2)ccn1` [Example 277, N-(4-(3-(6-Fluoropyridin-3-yl)-7-(hydroxymethyl)-1H-pyrrolo[3,2-b]pyridin-2-yl)pyridin-2-yl)acetamide], the IC50 on HIS-TGFβR2 WT was found to be 0.01 µM; on HIS-TGFβR1 T204D, 0.006 µM.

Turning to `CC(=O)Nc1cc(-c2[nH]c3cccnc3c2-c2ccc3ncccc3c2)ccn1` [Example 22, N-{4-[3-(Quinolin-6-yl)-1H-pyrrolo[3,2-b]pyridin-2-yl]pyridin-2-yl}acetamide], the IC50 on HIS-TGFβR2 WT is above 15 µM; at HIS-TGFβR1 T204D it was 0.039 µM.

Consider `COc1ccc(-c2c(-c3ccnc(NC(C)=O)c3)[nH]c3cc(OC4COC4)cnc23)nc1` [Example 98, N-(4-(3-(5-Methoxypyridin-2-yl)-6-(oxetan-3-yloxy)-1H-pyrrolo[3,2-b]pyridin-2-yl)pyridin-2-yl)acetamide], for which the IC50 on HIS-TGFβR2 WT is above 15 µM; at HIS-TGFβR1 T204D, 0.002 µM.

As to `CC(=O)Nc1cc(-c2[nH]c3c(C(C)O)ccnc3c2-c2nc(C(F)(F)F)cs2)ccn1` (stereo not shown) [Example 231, N-(4-(7-(1-Hydroxyethyl)-3-(4-(trifluoromethyl)thiazol-2-yl)-1H-pyrrolo[3,2-b]pyridin-2-yl)pyridin-2-yl)acetamide], the IC50 at HIS-TGFβR2 WT stood at 9.11 µM; on HIS-TGFβR1 T204D, 0.001 µM.

On to `CC(=O)Nc1cc(-c2[nH]c3cc(Cl)cnc3c2-c2ccc(F)cn2)ccn1` [Example 42, N-{4-[6-Chloro-3-(5-fluoropyridin-2-yl)-1H-pyrrolo[3,2-b]pyridin-2-yl]pyridin-2-yl}acetamide], for which the IC50 at HIS-TGFβR2 WT is 0.46 µM; on HIS-TGFβR1 T204D, 0.004 µM.

For `O=C(CN1CCNCC1)Nc1cc(-c2[nH]c3cc(Cl)cnc3c2-c2ccc(F)cn2)ccn1` [Example 247, N-(4-(6-Chloro-3-(5-fluoropyridin-2-yl)-1H-pyrrolo[3,2-b]pyridin-2-yl)pyridin-2-yl)-2-(piperazin-1-yl)acetamide], the IC50 is at least 15 µM at HIS-TGFβR2 WT and 0.003 µM on HIS-TGFβR1 T204D.

As to `CC(=O)Nc1cc(-c2[nH]c3cccnc3c2-c2nc(C(F)F)cs2)ccn1` [Example 200, N-(4-(3-(4-(Difluoromethyl)thiazol-2-yl)-1H-pyrrolo[3,2-b]pyridin-2-yl)pyridin-2-yl)acetamide], the IC50 came out at 0.548 µM at HIS-TGFβR2 WT and 0.0007 µM on HIS-TGFβR1 T204D.

On to `COc1ccc(-c2c(-c3ccnc(NC(C)=O)c3)[nH]c3cc(Cl)cnc23)nc1C` [Example 170, N-(4-(6-Chloro-3-(5-methoxy-6-methylpyridin-2-yl)-1H-pyrrolo[3,2-b]pyridin-2-yl)pyridin-2-yl)acetamide], for which the IC50 was above 15 µM at HIS-TGFβR2 WT and 0.032 µM on HIS-TGFβR1 T204D.

As to `COc1ccc(-c2c(-c3ccnc(NC(C)=O)c3)[nH]c3cc(C(O)C(F)(F)F)cnc23)nc1` (stereo not shown) [Example 297, N-(4-(3-(5-Methoxypyridin-2-yl)-6-(2,2,2-trifluoro-1-hydroxyethyl)-1H-pyrrolo[3,2-b]pyridin-2-yl)pyridin-2-yl)acetamide], the values for the IC50 on HIS-TGFβR2 WT and on HIS-TGFβR1 T204D were 4.33 µM and 0.004 µM, respectively.

For `CC(=O)Nc1cc(-c2[nH]c3c(C4CCOCC4)ccnc3c2-c2cccc(C(F)F)n2)ccn1` [Example 135, N-(4-{3-[6-(Difluoromethyl)pyridin-2-yl]-7-(oxan-4-yl)-1H-pyrrolo[3,2-b]pyridin-2-yl}pyridin-2-yl)acetamide], the IC50 on HIS-TGFβR2 WT is above 15 µM; at HIS-TGFβR1 T204D, 0.003 µM.

As for `CC(=O)Nc1cc(-c2[nH]c3cc(F)cnc3c2-c2nc(C)cs2)ccn1` [Example 225, N-(4-(6-Fluoro-3-(4-methylthiazol-2-yl)-1H-pyrrolo[3,2-b]pyridin-2-yl)pyridin-2-yl)acetamide], the half-maximal inhibitory concentration (IC50) at HIS-TGFβR2 WT is 0.057 µM; on HIS-TGFβR1 T204D, 0.0007 µM.

Turning to `CC(=O)Nc1cc(-c2[nH]c3c(Cl)ccnc3c2-c2ccc(F)cn2)ccn1` [Example 61, N-{4-[7-Chloro-3-(5-fluoropyridin-2-yl)-1H-pyrrolo[3,2-b]pyridin-2-yl]pyridin-2-yl}acetamide], the IC50 at HIS-TGFβR2 WT stood at 0.98 µM; on HIS-TGFβR1 T204D it was 0.005 µM.

Regarding `CC(=O)Nc1cc(-c2[nH]c3c(C(C)O)ccnc3c2-c2ccc(F)nc2)ccn1` (stereo not shown) [Example 261, N-(4-(3-(6-Fluoropyridin-3-yl)-7-(1-hydroxyethyl)-1H-pyrrolo[3,2-b]pyridin-2-yl)pyridin-2-yl)acetamide], the IC50 on HIS-TGFβR2 WT was 0.011 µM; at HIS-TGFβR1 T204D, 0.005 µM.

In the case of `CC(=O)N1CCN(CC(=O)Nc2cc(-c3[nH]c4cc(Cl)cnc4c3-c3ccc(F)cn3)ccn2)CC1` [Example 248, 2-(4-Acetylpiperazin-1-yl)-N-(4-(6-chloro-3-(5-fluoropyridin-2-yl)-1H-pyrrolo[3,2-b]pyridin-2-yl)pyridin-2-yl)acetamide], the results for the IC50 on HIS-TGFβR2 WT and on HIS-TGFβR1 T204D were 14.5 µM and 0.002 µM, respectively.
